Experimental findings from patent US20240150293A1, “SPIROCYCLOHEXANE DERIVATIVES, PHARMACEUTICAL COMPOSITIONS CONTAINING THEM AND THEIR USES AS ANTI-APOPTOTIC INHIBITORS” (LES LABORATOIRES SERVIER, priority 2021, published 2024) are described below.

One test relates to NCI-H929 cell lines. Nature of the test: In vitro cytotoxicity, CellTiter-Glo (CTG) assay (Example B, Method B). In kind it is cell-based. As to conditions: Homo sapiens, NCI-H929, 48 h, NCI-H929 cells, 48 h incubation, read-out: C50. The method, boiled down: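 ATP-based luminescence (CellTiter-Glo) after 48 h incubation at 37° C., 5% CO2 gave NCI-H929 viability. Eleven concentrations tested, highest final 30 μM, dispensed acoustically from 10 mM DMSO stocks; C50 defined as concentration reaching 50% viability.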
In general terms: Cellular ATP, detected with luciferase, serves as a proxy for viable cell number.

The target of test [1] is Cy5-labelled Mcl1 (amino acids 171-321) C286S protein (UniProtKB Q07820) (Homo sapiens (Human), UniProt Q07820, C286S). Nature of the test: Inhibition of Mcl-1 by the fluorescence quenching assay (Example A, Method B). The test is classed as binding. The method, boiled down:
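Eleven-point compound series incubated 2 h at room temperature with 1 nM Cy5-tagged protein and quencher-labelled PUMA peptide at 10, 20 or 400 nM in HEPES/NaCl/Tween 20, pH 7.4, 5% DMSO. IC50 for 50% fluorescence increase by 4-parameter fit, then Ki derived (complete cKi or estimated eKi).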

Cy5-labelled Mcl1 (amino acids 171-321) C286S protein, sequence (Q07820 171-321 C286S): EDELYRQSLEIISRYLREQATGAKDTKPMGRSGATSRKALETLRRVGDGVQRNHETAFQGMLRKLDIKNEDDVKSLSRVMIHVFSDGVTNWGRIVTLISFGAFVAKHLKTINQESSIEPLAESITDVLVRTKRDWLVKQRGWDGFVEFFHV

As for `COc1cc2c(cc1OC)[C@]1(CC[C@@](Nc3cccc(Cl)c3)(C(=O)O)CC1)[C@@H](C[C@@H](C)COc1ccnc3c1[C@H](C)CCC3)C2` [Example 835, (1r,2′S,4S)-4-(3-chloroanilino)-5′,6′-dimethoxy-2′-[(2R)-2-methyl-3-{[(5R)-5-methyl-5,6,7,8-tetrahydroquinolin-4-yl]oxy}propyl]-2′,3′-dihydrospiro[cyclohexane-1,1′-indene]-4-carboxylic acid], in the test with NCI-H929 cell lines, the IC50 came to 146 nM. For the same compound, the Ki in test [1] stood at 0.438 nM.
Regarding `C[C@@H](COc1ccnc2c1[C@H](C)CCC2)C[C@H]1Cc2cc3c(cc2[C@]12CC[C@@](Nc1cccc(Cl)c1)(C(=O)O)CC2)OCCCCO3` [Example 836, (1r,4S,9′S)-4-(3-chloroanilino)-9′-[(2R)-2-methyl-3-{[(5R)-5-methyl-5,6,7,8-tetrahydroquinolin-4-yl]oxy}propyl]-2′,3′,4′,5′,9′,10′-hexahydrospiro[cyclohexane-1,8′-indeno[5,6-b][1,4]dioxocine]-4-carboxylic acid], the IC50 in the test with NCI-H929 cell lines was 106 nM. In addition, the Ki in test [1] turned out to be 0.0472 nM.
For the compound `C[C@@H](COc1ccnc2c1[C@H](C)CCC2)C[C@H]1Cc2cc3c(cc2[C@]12CC[C@@](Nc1cccc(Cl)c1)(C(=O)O)CC2)OCCCO3` [Example 837, (1r,4S,8′S)-4-(3-chloroanilino)-8′-[(2R)-2-methyl-3-{[(5R)-5-methyl-5,6,7,8-tetrahydroquinolin-4-yl]oxy}propyl]-3′,4′,8′,9′-tetrahydro-2′H-spiro[cyclohexane-1,7′-indeno[5,6-b][1,4]dioxepine]-4-carboxylic acid], in the test with NCI-H929 cell lines, the IC50 is 31 nM. Also, in test [1], the inhibitory constant (Ki) stood at 0.00733 nM.
Regarding `C[C@@H](COc1ccnc2c1[C@@H](C)CCC2)C[C@@H]1Cc2cc3c(cc2[C@]12CC[C@@](Nc1cccc(Cl)c1)(C(=O)O)CC2)OCO3` [Example 843, (1r,4R,6′R)-4-(3-chloroanilino)-6′-[(2R)-2-methyl-3-{[(5S)-5-methyl-5,6,7,8-tetrahydroquinolin-4-yl]oxy}propyl]-6′,7′-dihydro-2′H-spiro[cyclohexane-1,5′-indeno[5,6-d][1,3]dioxole]-4-carboxylic acid], in the test on NCI-H929 cell lines, the IC50 was 1380 nM. The Ki in test [1] amounted to 3.58 nM.
As for `[2H]c1c([2H])c(Cl)c([2H])c(N[C@]2(C(=O)O)CC[C@]3(CC2)c2cc4c(cc2C[C@@H]3C[C@@H](C)COc2ccnc3c2[C@H](C)CCC3)OCO4)c1[2H]` [Example 844, (1r,4S,6′S)-4-{[3-chloro(2H4)phenyl]amino}-6′-[(2R)-2-methyl-3-{[(5R)-5-methyl-5,6,7,8-tetrahydroquinolin-4-yl]oxy}propyl]-6′,7′-dihydro-2′H-spiro[cyclohexane-1,5′-indeno[5,6-d][1,3]dioxole]-4-carboxylic acid], in the test with NCI-H929 cell lines, the IC50 was 29.2 nM. The Ki in test [1] was determined as 0.0106 nM.
For `C[C@@H](COc1ccnc2c1[C@H](C)CCC2)C[C@H]1Cc2cc3c(cc2[C@]12CC[C@@](Nc1cccc(Cl)c1F)(C(=O)O)CC2)OCO3` [Example 846, (1r,4S,6′S)-4-(3-chloro-2-fluoroanilino)-6′-[(2R)-2-methyl-3-{[(5R)-5-methyl-5,6,7,8-tetrahydroquinolin-4-yl]oxy}propyl]-6′,7′-dihydro-2′H-spiro[cyclohexane-1,5′-indeno[5,6-d][1,3]dioxole]-4-carboxylic acid], the IC50 in the test on NCI-H929 cell lines is 42 nM. Moreover, the Ki in test [1] was 0.105 nM.
For the compound `C[C@@H](COc1ccnc2c1[C@H](C)CCC2)C[C@H]1Cc2cc3c(cc2[C@]12CC[C@@](Nc1cccc(Cl)c1)(C(=O)O)CC2)OC(C)(C)O3` [Example 848, (1r,4S,6′S)-4-(3-chloroanilino)-2′,2′-dimethyl-6′-[(2R)-2-methyl-3-{[(5R)-5-methyl-5,6,7,8-tetrahydroquinolin-4-yl]oxy}propyl]-6′,7′-dihydro-2′H-spiro[cyclohexane-1,5′-indeno[5,6-d][1,3]dioxole]-4-carboxylic acid], the IC50 with NCI-H929 cell lines stood at 48.6 nM. Also, in test [1], the Ki is 0.0343 nM.
As for `C[C@@H](COc1ccnc2c1[C@H](C)CCC2)C[C@H]1Cc2cc3c(cc2[C@]12CC[C@@](Nc1cccc(Cl)c1)(C(=O)O)CC2)OC(F)(F)O3` [Example 849, (1r,4S,6′S)-4-(3-chloroanilino)-2′,2′-difluoro-6′-[(2R)-2-methyl-3-{[(5R)-5-methyl-5,6,7,8-tetrahydroquinolin-4-yl]oxy}propyl]-6′,7′-dihydro-2′H-spiro[cyclohexane-1,5′-indeno[5,6-d][1,3]dioxole]-4-carboxylic acid], in the test on NCI-H929 cell lines, the IC50 came to 90.5 nM. In addition, the Ki in test [1] was 0.228 nM.
The like results for `C[C@@H](COc1ccnc2c1[C@H](C)CCC2)C[C@H]1Cc2cc3c(cc2[C@]12CC[C@@](Nc1cccc(Cl)c1)(C(=O)O)CC2)OCC3` [Example 850, (1r,4S,6′S)-4-(3-chloroanilino)-6′-[(2R)-2-methyl-3-{[(5R)-5-methyl-5,6,7,8-tetrahydroquinolin-4-yl]oxy}propyl]-2′,3′,5′,6′-tetrahydrospiro[cyclohexane-1,7′-indeno[5,6-b]furan]-4-carboxylic acid] were, in that order, 50.9 nM and 0.0173 nM.
Consider `C[C@@H](COc1ccnc2c1[C@H](C)CCC2)C[C@H]1Cc2cc3c(cc2[C@]12CC[C@@](Nc1cccc(Cl)c1)(C(=O)O)CC2)CCO3` [Example 851, (1r,4S,6′S)-4-(3-chloroanilino)-6′-[(2R)-2-methyl-3-{[(5R)-5-methyl-5,6,7,8-tetrahydroquinolin-4-yl]oxy}propyl]-2′,3′,6′,7′-tetrahydrospiro[cyclohexane-1,5′-indeno[5,6-b]furan]-4-carboxylic acid], for which the IC50 in the test with NCI-H929 cell lines was 34.9 nM. The Ki in test [1] was determined as 0.0256 nM.
With `C[C@@H](COc1ccnc2c1[C@H](C)CCC2)C[C@H]1Cc2cc3c(cc2[C@]12CC[C@@](Nc1cccc(Cl)c1)(C(=O)O)CC2)CCC3` [Example 852, (1r,2′S,4S)-4-(3-chloroanilino)-2′-[(2R)-2-methyl-3-{[(5R)-5-methyl-5,6,7,8-tetrahydroquinolin-4-yl]oxy}propyl]-3′,5′,6′,7′-tetrahydro-2′H-spiro[cyclohexane-1,1′-[s]indacene]-4-carboxylic acid], the IC50 in the test with NCI-H929 cell lines stood at 235 nM. In addition, the Ki in test [1] turned out to be 0.0896 nM.
With `Cc1ccc2c(c1)C[C@H](C[C@@H](C)COc1ccnc3c1[C@H](C)CCC3)[C@]21CC[C@](Nc2cccc(Cl)c2)(C(=O)O)CC1` [Example 853, (1r,2′S,4S)-4-(3-chloroanilino)-5′-methyl-2′-[(2R)-2-methyl-3-{[(5R)-5-methyl-5,6,7,8-tetrahydroquinolin-4-yl]oxy}propyl]-2′,3′-dihydrospiro[cyclohexane-1,1′-indene]-4-carboxylic acid], the IC50 with NCI-H929 cell lines was determined as 137 nM. Further, the Ki in test [1] amounted to 0.0917 nM.
With `C[C@@H](COc1ccnc2c1[C@H](C)CCC2)C[C@H]1Cc2ccc(CO)cc2[C@]12CC[C@@](Nc1cccc(Cl)c1)(C(=O)O)CC2` [Example 870, (1r,2′S,4S)-4-(3-chloroanilino)-6′-(hydroxymethyl)-2′-[(2R)-2-methyl-3-{[(5R)-5-methyl-5,6,7,8-tetrahydroquinolin-4-yl]oxy}propyl]-2′,3′-dihydrospiro[cyclohexane-1,1′-indene]-4-carboxylic acid], in the test on NCI-H929 cell lines, the IC50 was determined as 126 nM. The Ki in test [1] is 0.0509 nM.

As usually defined, the Ki is the equilibrium dissociation constant of an inhibitor or competing ligand from its target.
